Structures are written as SMILES.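 Protocol summary: plate cells (96-well), add compound at 5 concentrations, incubate 48 h, interpolate endpoints linearly. At the GI50, growth is halved. TGI: concentration producing complete growth inhibition.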

Among the data in PubChem BioAssay (NCI) are GI50 and TGI values, retold here.

Among the test systems are KM12 colon; OVCAR-3 ovarian; SF-295 CNS; PC-3 prostate; SNB-75 CNS; HCT-15 colon; TK-10 renal; DU-145 prostate; HOP-62 NSCLC; HL-60(TB) leukemia.
What all share (test): inhibition of tumour cell growth, NCI panel, 48 h

In the case of `COc1ncc2cc1NS(=O)(=O)c1cccc(c1)C(=O)NCC1=CC=C(S1)c1ncnc3c1SC2=C3C`, the GI50 with KM12 colon was 0.269 µM; in the experiment on OVCAR-3 ovarian it was 0.115 µM; with SF-295 CNS, 0.0972 µM; with PC-3 prostate, 0.0797 µM; in the experiment with SNB-75 CNS, 0.0176 µM; in the experiment on HCT-15 colon, 0.254 µM. The GI50 in the experiment with TK-10 renal was 0.51 µM; in the experiment on DU-145 prostate, 0.42 µM; with HOP-62 NSCLC it was 0.238 µM. Besides, the TGI with KM12 colon is 1.34 µM; with OVCAR-3 ovarian it was 0.431 µM; with SF-295 CNS, 2.61 µM; with PC-3 prostate, 2.77 µM; in the experiment with SNB-75 CNS, 2.26 µM; in the experiment with HCT-15 colon it was 1.36 µM. Besides, the TGI in the experiment on TK-10 renal was 10.4 µM; with DU-145 prostate, 3.4 µM; in the experiment with HOP-62 NSCLC it was 4.1 µM.

Turning to `Cc1nn2c(-c3nc4cc(Cl)c(Cl)cc4[nH]3)c(-c3ccc(F)cc3)nc2s1`, the GI50 in the experiment on HL-60(TB) leukemia is more than 100 µM; in the experiment on OVCAR-3 ovarian, 3.26 µM; in the experiment on SF-295 CNS, 4.92 µM; with PC-3 prostate, 9.29 µM; with SNB-75 CNS, 1.56 µM; in the experiment with HCT-15 colon it was more than 100 µM. The GI50 in the experiment with TK-10 renal is 2.19 µM; with DU-145 prostate, 5.19 µM; in the experiment on HOP-62 NSCLC it was 1.93 µM. For the same molecule, the TGI with HL-60(TB) leukemia is more than 100 µM; in the experiment on OVCAR-3 ovarian, 11.1 µM; in the experiment with SF-295 CNS it was more than 42.8 µM; in the experiment with PC-3 prostate it was more than 100 µM; with SNB-75 CNS, 3.71 µM; with HCT-15 colon, more than 100 µM. The TGI in the experiment with TK-10 renal is 4.69 µM; in the experiment with DU-145 prostate, more than 100 µM; in the experiment on HOP-62 NSCLC, 7.26 µM.

For `O=C(CN(/C=C/C(=O)C(F)(F)F)c1ccccc1)c1ccc(F)cc1`, the GI50 was 24.9 µM with KM12 colon; 25.8 µM in the experiment on OVCAR-3 ovarian; 20.8 µM in the experiment with SF-295 CNS; 29 µM in the experiment with PC-3 prostate; 25.4 µM in the experiment on HCT-15 colon; 33 µM in the experiment on TK-10 renal. Further, the GI50 in the experiment with DU-145 prostate was 50 µM; in the experiment with HOP-62 NSCLC, 75.1 µM. Also, the TGI with KM12 colon was 69.9 µM; in the experiment with OVCAR-3 ovarian, 68.7 µM; with SF-295 CNS, 69.6 µM; with PC-3 prostate, more than 100 µM; with HCT-15 colon it was more than 100 µM; in the experiment on TK-10 renal it was more than 100 µM. Moreover, the TGI in the experiment with DU-145 prostate and in the experiment on HOP-62 NSCLC was more than 100 µM each time.

Take `CC(=O)OC1COC(Oc2c(C)c3c4c(c2O)[C@@H](C)CC[C@@H]4[C@@H](C)C[C@H]3C=C(C)C)C(O)C1O` (stereo partly specified): the GI50 is 17.7 µM in the experiment on KM12 colon; 16.1 µM with OVCAR-3 ovarian; 17.9 µM in the experiment with SF-295 CNS; 14.4 µM with PC-3 prostate; 17.9 µM with HCT-15 colon; 16.3 µM in the experiment on TK-10 renal. Moreover, the GI50 in the experiment with DU-145 prostate was 13.7 µM; in the experiment on HOP-62 NSCLC, 17.8 µM. Also, the TGI in the experiment on KM12 colon stood at 33.8 µM; in the experiment on OVCAR-3 ovarian it was 31.3 µM; with SF-295 CNS it was 35.3 µM; with PC-3 prostate, 31.1 µM; in the experiment on HCT-15 colon, 37.9 µM; in the experiment with TK-10 renal, 31 µM. Besides, the TGI was 30.7 µM in the experiment with DU-145 prostate and 34.2 µM in the experiment with HOP-62 NSCLC.

`CC(C)c1cc(C(C)C)c(Cl)c(Cl)c1O` (tested in a mixture with another compound): the TGI was 36 µM in the experiment on HL-60(TB) leukemia; 58.1 µM in the experiment with KM12 colon; 60.1 µM with OVCAR-3 ovarian; 40.9 µM in the experiment on SF-295 CNS; 40.7 µM with PC-3 prostate; more than 100 µM in the experiment on HCT-15 colon. The TGI in the experiment on TK-10 renal was 54.3 µM; in the experiment on DU-145 prostate, more than 100 µM; with HOP-62 NSCLC, more than 100 µM.

Regarding `CCN(CC)C(=O)CCCCCn1c2ccccc2c2c3c(c4c5ccccc5[nH]c4c21)C(=O)N(O)C3=O`, the GI50 with HL-60(TB) leukemia is 2.8 µM; with KM12 colon, 3.31 µM; in the experiment with SF-295 CNS it was 6.07 µM; in the experiment with PC-3 prostate, 3.19 µM; in the experiment on SNB-75 CNS it was 7.71 µM; in the experiment with HCT-15 colon, 4.07 µM. Also, the GI50 in the experiment with TK-10 renal is 3.64 µM; in the experiment with DU-145 prostate, 6.5 µM; in the experiment with HOP-62 NSCLC, 11.6 µM. Further, the TGI was 7.63 µM in the experiment on HL-60(TB) leukemia; 14.7 µM with KM12 colon; 55.7 µM with SF-295 CNS; 52.9 µM in the experiment with PC-3 prostate; more than 100 µM in the experiment with SNB-75 CNS; more than 100 µM with HCT-15 colon. Besides, the TGI with TK-10 renal was 64 µM; in the experiment with DU-145 prostate, more than 100 µM; in the experiment with HOP-62 NSCLC, 47.8 µM.

Turning to `CC1(C)N=C(N)N=C(N)N1c1ccc(OCCCCNC(=O)Nc2cccc(S(=O)(=O)F)c2)c(Cl)c1`, the GI50 with HL-60(TB) leukemia is 0.61 µM; in the experiment with KM12 colon it was 2.64 µM; in the experiment on OVCAR-3 ovarian it was 6.89 µM; in the experiment on SF-295 CNS, 5.59 µM; in the experiment on PC-3 prostate, 0.0995 µM; in the experiment on SNB-75 CNS, 2.98 µM. Besides, the values for the GI50 in the experiment with HCT-15 colon, in the experiment on DU-145 prostate and in the experiment on HOP-62 NSCLC were 10.6 µM, 3.83 µM and 10.6 µM, respectively. The TGI in the experiment with HL-60(TB) leukemia is more than 100 µM; in the experiment on KM12 colon, more than 100 µM; in the experiment with OVCAR-3 ovarian it was more than 100 µM; with SF-295 CNS it was more than 100 µM; in the experiment on PC-3 prostate, more than 100 µM; in the experiment with SNB-75 CNS, 48.7 µM. Further, the TGI in the experiment on HCT-15 colon, in the experiment on DU-145 prostate and in the experiment on HOP-62 NSCLC was more than 100 µM in each case.

Turning to `COC(=O)c1ccc2c(c1)C(=O)c1c-2n(CCCCl)c(=O)c2cc(OC)c(OC)cc12`, the GI50 in the experiment with KM12 colon is more than 100 µM; in the experiment with OVCAR-3 ovarian it was more than 100 µM; with SF-295 CNS it was more than 100 µM; in the experiment on PC-3 prostate, more than 100 µM; with SNB-75 CNS, 12.9 µM; in the experiment with HCT-15 colon, more than 100 µM. Besides, the GI50 in the experiment with TK-10 renal, in the experiment with DU-145 prostate and with HOP-62 NSCLC was more than 100 µM throughout. For the same molecule, the TGI in the experiment with KM12 colon is more than 100 µM; in the experiment on OVCAR-3 ovarian it was more than 100 µM; with SF-295 CNS, more than 100 µM; in the experiment with PC-3 prostate, more than 100 µM; in the experiment with SNB-75 CNS it was 91.6 µM; in the experiment with HCT-15 colon, more than 100 µM. Also, the TGI with TK-10 renal, in the experiment with DU-145 prostate and in the experiment with HOP-62 NSCLC was more than 100 µM in each case.
